Test results reported in patent US5405849A, “Angiotensin II receptor blocking 2,3,6 substituted quinazolinones” (American Cyanamid Company, priority 1993, dated 1995).
Blank lines part the entries; values can stand above or below the compound they belong to.

Legend:
angiotensin II receptors = test: Angiotensin II receptor binding (displacement of 3H-angiotensin II), rat adrenocortical microsomes; settings: 2 nM 3H-angiotensin II
Procedure: The source of the angiotensin II receptors utilized in the screen is from rat adrenocortical microsomes. The cortices are placed in ice cold sucrose buffer (0.2 m sucrose, 1 mm EDTA, 10 mm Trizma base, pH 7.4) and homogenized in a chilled ground glass tissue grinder. The homogenate is centrifuged at 3000×g for 10 min. and the resultant supernatant is decanted through cheesecloth and centrifuged at 12,000×g for 3 min. […] Binding assays are performed by incubating aliquots of freshly prepared microsomes in the absence or presence of compound (40 uM final concentration). Ten minutes later, ^3 H-angiotensin II is added to each tube (2 nM final concentration) and incubated for 60 minutes at […]. The reaction is terminated by the addition of 3 ml of cold assay buffer without albumin and the bound and free radioactivity is separated rapidly through glass-fiber filters prewetted with assay buffer. After two additional 3 ml rinses, the filters are placed in scintillation fluid and counted in a scintillation counter to determine trapped radioactivity.

[1] = system: angiotensin II (AII) vasopressor response; test: AII challenge: antagonism of the vasopressor response of angiotensin II in conscious Okamoto-Aoki SHR; assay type: in vivo, rat (Okamoto-Aoki SHR); settings: for inhibition in vivo at 1 mg/kg / inhibition in vivo at 2 mg/kg / inhibition in vivo at 30 mg/kg: Rattus norvegicus, iv
Outline: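 Conscious male Okamoto-Aoki spontaneously hypertensive rats, 16-20 weeks old and about 330 g, received caudal arterial and venous cannulae under local 2% procaine anesthesia. They were kept upright in restraining cages while pulsatile blood pressure was recorded by pressure transducer. The systolic pressure rise to i.v. angiotensin II was measured before and after test compound dosing. Inhibition was expressed relative to each rat's predose response, taken as 100%.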

IC50 (angiotensin II receptors): 8.6 nM
Compound: CCCCc1nc2ccc(C(OC)c3ccccc3)cc2c(=O)n1Cc1ccc(-c2ccccc2-c2nnn[nH]2)cc1 (centres unmarked) [Example 56, 2-Butyl-6-(methoxyphenylmethyl)-3-[[2'-(1H-tetrazol-5-yl)[1,1'-biphenyl]-4-yl]methyl]-4(3H)-quinazolinone]
Response change (systolic BP increase to AII) ([1]; 1 mg/kg iv, AII .025 ug/kg, 15 min): 18 mmHg | Response change (systolic BP increase to AII) ([1]; 1 mg/kg iv, AII .025 ug/kg, 30 min): 27 mmHg | Response change (systolic BP increase to AII) ([1]; 1 mg/kg iv, AII .025 ug/kg, 60 min): 20 mmHg | Response change (systolic BP increase to AII) ([1]; 1 mg/kg iv, AII .05 ug/kg, 15 min): 15 mmHg | Response change (systolic BP increase to AII) ([1]; 1 mg/kg iv, AII .05 ug/kg, 30 min): 15 mmHg | Response change (systolic BP increase to AII) ([1]; 1 mg/kg iv, AII .05 ug/kg, 60 min): 20 mmHg | Response change (systolic BP increase to AII) ([1]; 1 mg/kg iv, AII .1 ug/kg, 15 min): 15 mmHg | Response change (systolic BP increase to AII) ([1]; 1 mg/kg iv, AII .1 ug/kg, 30 min): 20 mmHg | Response change (systolic BP increase to AII) ([1]; 1 mg/kg iv, AII .1 ug/kg, 60 min): 30 mmHg | Response change (systolic BP increase to AII) ([1]; 2 mg/kg iv, AII .025 ug/kg, 90 min): 10 mmHg | Response change (systolic BP increase to AII) ([1]; 2 mg/kg iv, AII .025 ug/kg, 120 min): 20 mmHg | Response change (systolic BP increase to AII) ([1]; 2 mg/kg iv, AII .025 ug/kg, 150 min): 15 mmHg | Response change (systolic BP increase to AII) ([1]; 2 mg/kg iv, AII .05 ug/kg, 90 min): 15 mmHg | Response change (systolic BP increase to AII) ([1]; 2 mg/kg iv, AII .05 ug/kg, 120 min): 15 mmHg | Response change (systolic BP increase to AII) ([1]; 2 mg/kg iv, AII .05 ug/kg, 150 min): 10 mmHg | Response change (systolic BP increase to AII) ([1]; 2 mg/kg iv, AII .1 ug/kg, 90 min): 5 mmHg | Response change (systolic BP increase to AII) ([1]; 2 mg/kg iv, AII .1 ug/kg, 120 min): 15 mmHg | Response change (systolic BP increase to AII) ([1]; 2 mg/kg iv, AII .1 ug/kg, 150 min): 20 mmHg | inhibition in vivo at 1 mg/kg ([1]; 0.25 h, 1 mg/kg iv, AII .025 ug/kg, 15 min): 40% | inhibition in vivo at 1 mg/kg ([1]; 0.25 h, 1 mg/kg iv, AII .05 ug/kg, 15 min): 57% | inhibition in vivo at 1 mg/kg ([1]; 0.25 h, 1 mg/kg iv, AII .1 ug/kg, 15 min): 57% | inhibition in vivo at 1 mg/kg ([1]; 0.5 h, 1 mg/kg iv, AII .025 ug/kg, 30 min): 27% | inhibition in vivo at 1 mg/kg ([1]; 0.5 h, 1 mg/kg iv, AII .05 ug/kg, 30 min): 57% | inhibition in vivo at 1 mg/kg ([1]; 0.5 h, 1 mg/kg iv, AII .1 ug/kg, 30 min): 43% | inhibition in vivo at 1 mg/kg ([1]; 1 h, 1 mg/kg iv, AII .025 ug/kg, 60 min): 33% | inhibition in vivo at 1 mg/kg ([1]; 1 h, 1 mg/kg iv, AII .05 ug/kg, 60 min): 43% | inhibition in vivo at 1 mg/kg ([1]; 1 h, 1 mg/kg iv, AII .1 ug/kg, 60 min): 14% | inhibition in vivo at 2 mg/kg ([1]; 1.5 h, 2 mg/kg iv, AII .025 ug/kg, 90 min): 67% | inhibition in vivo at 2 mg/kg ([1]; 1.5 h, 2 mg/kg iv, AII .05 ug/kg, 90 min): 57% | inhibition in vivo at 2 mg/kg ([1]; 1.5 h, 2 mg/kg iv, AII .1 ug/kg, 90 min): 86% | inhibition in vivo at 2 mg/kg ([1]; 2 h, 2 mg/kg iv, AII .025 ug/kg, 120 min): 33% | inhibition in vivo at 2 mg/kg ([1]; 2 h, 2 mg/kg iv, AII .05 ug/kg, 120 min): 57% | inhibition in vivo at 2 mg/kg ([1]; 2 h, 2 mg/kg iv, AII .1 ug/kg, 120 min): 57% | inhibition in vivo at 2 mg/kg ([1]; 2.5 h, 2 mg/kg iv, AII .025 ug/kg, 150 min): 50% | inhibition in vivo at 2 mg/kg ([1]; 2.5 h, 2 mg/kg iv, AII .05 ug/kg, 150 min): 71% | inhibition in vivo at 2 mg/kg ([1]; 2.5 h, 2 mg/kg iv, AII .1 ug/kg, 150 min): 43%

IC50 (angiotensin II receptors): 5 nM
Compound: CCCCc1nc2ccc(C(CC)OC)cc2c(=O)n1Cc1ccc(-c2ccccc2-c2nnn[nH]2)cc1 (centres unmarked) [Example 55, 2-Butyl-6-(1-methoxypropyl)-3-[[2'-(1H-tetrazol-5-yl) [1,1'-biphenyl]-4-yl]methyl]-4(3H) -quinazolinone]
Response change (systolic BP increase to AII) ([1]; 30 mg/kg iv, AII .05 ug/kg, 30 min): 10 mmHg | Response change (systolic BP increase to AII) ([1]; 30 mg/kg iv, AII .05 ug/kg, 90 min): 15 mmHg | Response change (systolic BP increase to AII) ([1]; 30 mg/kg iv, AII .05 ug/kg, 150 min): 20 mmHg | Response change (systolic BP increase to AII) ([1]; 30 mg/kg iv, AII .1 ug/kg, 30 min): 15 mmHg | Response change (systolic BP increase to AII) ([1]; 30 mg/kg iv, AII .1 ug/kg, 90 min): 5 mmHg | Response change (systolic BP increase to AII) ([1]; 30 mg/kg iv, AII .1 ug/kg, 150 min): 5 mmHg | inhibition in vivo at 30 mg/kg ([1]; 0.5 h, 30 mg/kg iv, AII .05 ug/kg, 30 min): 82% | inhibition in vivo at 30 mg/kg ([1]; 0.5 h, 30 mg/kg iv, AII .1 ug/kg, 30 min): 73% | inhibition in vivo at 30 mg/kg ([1]; 1.5 h, 30 mg/kg iv, AII .05 ug/kg, 90 min): 73% | inhibition in vivo at 30 mg/kg ([1]; 1.5 h, 30 mg/kg iv, AII .1 ug/kg, 90 min): 91% | inhibition in vivo at 30 mg/kg ([1]; 2.5 h, 30 mg/kg iv, AII .05 ug/kg, 150 min): 64% | inhibition in vivo at 30 mg/kg ([1]; 2.5 h, 30 mg/kg iv, AII .1 ug/kg, 150 min): 91%
